Laboratory results taken from US12612343B2, “PSMA binder and use thereof” (priority 2020, dated 2026).
Several values for one entry are separate records, joined by “and”; a condition that tells them apart may be missing. Equal entries are not always repeated. Entries after “also recorded” stand apart in the source; their conditions may differ. Where two headings read alike, the source gives them in different places.

Experiments:
[1] = system: Human prostate cancer LNCaP cells (PSMA positive); assay: LNCaP cell uptake experiment; type: cell-based; settings: for specific binding to PSMA-positive LNCaP cells: conclusion from the uptake and blocking experiment
Description: Human prostate cancer LNCaP cells (PSMA positive) were cultured in a RPMI 1640 medium containing 10% fetal bovine serum and 1% penicillin-streptomycin double antibody under 37° C. with 5% CO2 and saturated humidity in the incubator. When the cells reach log phase, they were digested with 0.25% trypsin, then the cells were collected and washed twice with PBS, after that a cell suspension was obtained for further culture. A fixed number of cell lines (1.0×10^6 cells/1 ml) was placed in each well of a 24-well cell culture dish, and the experiment was performed after the logarithmic growth phase.
The cells were divided into an experimental group and a blocking group. […] 6 groups of experiments were carried out in parallel. After 1 h, the culture medium was aspirated, placed in a γ-counting tube, and then washed three times with PBS. The washing solution and the culture medium were combined for storage. Then the cells were trypsinized, collected in another counting tube, and the percentage of cell uptake was calculated by a γ-counting tube.

PSMA protein = PSMA protein (Homo sapiens, UniProt Q04609); assay: Affinity assay by Surface Plasmon Resonance (SPR); settings: binding to PSMA protein
Sequence of PSMA protein (Q04609 whole entry): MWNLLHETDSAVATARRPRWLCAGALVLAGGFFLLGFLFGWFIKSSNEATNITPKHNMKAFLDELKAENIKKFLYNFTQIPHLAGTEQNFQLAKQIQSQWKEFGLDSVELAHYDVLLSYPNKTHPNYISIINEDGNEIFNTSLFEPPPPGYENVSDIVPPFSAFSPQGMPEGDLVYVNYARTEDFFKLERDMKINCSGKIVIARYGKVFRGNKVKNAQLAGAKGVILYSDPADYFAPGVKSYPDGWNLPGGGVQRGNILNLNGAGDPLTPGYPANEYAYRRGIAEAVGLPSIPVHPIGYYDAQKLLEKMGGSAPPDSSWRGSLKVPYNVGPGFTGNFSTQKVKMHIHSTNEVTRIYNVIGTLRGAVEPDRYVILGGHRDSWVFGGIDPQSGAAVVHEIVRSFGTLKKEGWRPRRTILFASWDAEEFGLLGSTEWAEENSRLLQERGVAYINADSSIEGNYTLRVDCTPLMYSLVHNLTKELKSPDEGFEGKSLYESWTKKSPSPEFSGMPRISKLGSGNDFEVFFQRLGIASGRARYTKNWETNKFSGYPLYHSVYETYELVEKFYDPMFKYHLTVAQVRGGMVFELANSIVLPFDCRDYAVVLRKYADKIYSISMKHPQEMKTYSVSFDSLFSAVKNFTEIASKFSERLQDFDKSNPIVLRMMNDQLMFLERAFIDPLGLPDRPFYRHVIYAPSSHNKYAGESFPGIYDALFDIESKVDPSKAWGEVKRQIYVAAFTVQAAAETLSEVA
Description: The binding capacity of HYNIC-PSMA-XL-2 and HYNIC-PSMA-XL-3 to PSMA protein was determined by Surface Plasmon Resonance (SPR).

[2] = system: biochemical recurrent prostate cancer; assay: Comparison of SPECT/CT and PET/CT in 10 patients with biochemical recurrent prostate cancer; type: in vivo, human; settings: for patients found to have local recurrence in the prostatic fossa / positive rate of imaging: 5 patients per group; for positive rate of imaging: preliminary statistics; for Number of tumors / With or without local recurrence: per patient (No. 1-10), biochemical recurrence after radical prostatectomy
Description: 10 patients with biochemical recurrent prostate cancer were randomly divided into two groups. The basic clinical information of the two groups was similar: they both have previously received radical prostatectomy, and the current PSA of them were 1-3 ng/ml, and the GS score of them were 8-9. One group underwent ^68Ga-PSMA11 PET/CT, and the other group underwent ^99mTc-PSMA-XL SPECT/CT.

[3] = system: prostate tumors versus bladder; assay: Comparative imaging study with existing PSMA imaging agents in 15 prostate cancer patients; type: in vivo, human; settings: 3 groups, SPECT/CT or PET/CT (FIG. 19)
Excerpt: 15 patients with prostate cancer were randomly divided into 3 groups. One group underwent ^99mTc-HYNIC-ALUG SPECT/CT, one group underwent ^68Ga-PSMA11 PET/CT, and one group underwent ^99mTc-HYNIC-PSMA-XL3 SPECT/CT.

[4] = system: prostate cancer tumors (PSMA expression); assay: SPECT/CT imaging of 10 patients with prostate cancer, with immunohistochemistry of surgical specimens; type: in vivo, human
Description: The patients were injected with about 740MBq of ^99mTc-HYNIC-PSMA-XL-3, and 2 hours later, they were examined by a Discovery 670 (GE, USA) scanner. Taking the right obturator internus muscle as the background, the target-to-background ratio (TBR) was calculated, and the results were shown in FIG. 15. […] Four of the five patients with primary prostate cancer underwent radical prostatectomy, and one of the three patients with biochemical recurrence prostate cancer underwent salvage lymph node dissection. Without knowing the results of ^99mTc-HYNIC-PSMA-XL-3 SPECT/CT, pathology specialists performed pathological analysis of samples. Representative sections were stained by immunohistochemistry method, deparaffinized in xylene and rehydrated in graded ethanol series. Antigen retrieval was performed with the aid of autoclave and retrieval buffer (Target Retrieval Solution, Dako). Mouse monoclonal antibody against PSMA (clone 3E6, Dako) was diluted at a 1:100 dilution and incubated overnight at 4° C., followed by immunodetection using the Histostain-Plus Detection Kit (Invitrogen). Stained sections were scanned using Nanozoomer 2.0-[…] (Hamamatsu Photonics) to generate digital overall images.

[5] = upper bound calculated from ka, as kd was beyond the detection limit, read-out: KD value (SPR method)

## O=C(O)CCC(NC(=O)NC(CCCCNC(=O)C(Cc1ccc2ccccc2c1)NC(=O)c1ccc(CNC(=O)C(CCC(=O)O)NC(=O)C(CCC(=O)O)NC(=O)c2ccc(N[N]=[99Tc]345([Cl])[O]C(=O)C[N]3CC[N]4CC(=O)[O]5)nc2)cc1)C(=O)O)C(=O)O (stereo not drawn) [^99mTc-HYNIC/EDDA-PSMA-XL-2]
[1]
  specific binding to PSMA-positive LNCaP cells: highly specifically bind

## O=C(O)CCc1ccc(O)c(CN(CCN(CC(=O)O)Cc2cc(CCC(=O)NCCCCCC(=O)NCCCC[C@H](NC(=O)N[C@@H](CCC(=O)O)C(=O)O)C(=O)O)ccc2O)CC(=O)O)c1 [PSMA11, reference compound]
PSMA protein; reference PSMA inhibitors, same method
  Kd: 1.25 nM

## NNc1ccc(C(=O)NC(CCC(=O)O)C(=O)NCc2ccc(C(=O)NC(Cc3ccc4ccccc4c3)C(=O)NCCCCC(NC(=O)NC(CCC(=O)O)C(=O)O)C(=O)O)cc2)cn1 (stereo not drawn) [HYNIC-PSMA-XL-3, Glu-Urea-Lys-2Nal-AMB-Glu-HYNIC]
PSMA protein; [5]
  Kd: < 0.00486 nM

## O=C(O)CCC(NC(=O)NC(CCCCNC(=O)C(Cc1ccc2ccccc2c1)NC(=O)c1ccc(CNC(=O)C(CCC(=O)O)NC(=O)c2ccc(N[N]=[99Tc]3([Cl])[O]C(=O)CNCCNCC(=O)[O]3)nc2)cc1)C(=O)O)C(=O)O (stereo not drawn) [^99mTc-HYNIC/EDDA-PSMA-XL-3]
[2]
  patients found to have local recurrence in the prostatic fossa: 1
  positive rate of imaging: 80%
[2]; listed as 99mTc-PSMA-XL
  Number of tumors: 3 and 1 and 2 and 0 and 4
  With or without local recurrence: yes and no (4×)
[1]; LNCaP cells, 0.5 μCi per well, 1 h
  percentage of cell uptake, Experimental group: 14.01 ± 1.11%
[1]; LNCaP cells, 1 h, excess 2-PMPA (1000-fold molar equivalent) added half an hour in advance
  percentage of cell uptake, Blocking group: 2.66 ± 0.51%

## O=C(O)CCC(NC(=O)NC(CCCCNC(=O)C(Cc1ccc2ccccc2c1)NC(=O)c1ccc(CNC(=O)C(CCC(=O)O)NC(=O)c2ccc(N[N]=[99Tc]345([Cl])[O]C(=O)C[N]3CC[N]4CC(=O)[O]5)nc2)cc1)C(=O)O)C(=O)O (stereo not drawn) [^99mTc-HYNIC/EDDA-PSMA-XL-3]
[1]
  specific binding to PSMA-positive LNCaP cells: highly specifically bind
[3]; listed as 99mTc-HYNIC-PSMA-XL3
  distribution of radioactivity in the bladder: very low distribution of radioactivity
[3]; listed as 99mTc-HYNIC-PSMA-XL-3
  distribution of radioactivity in the bladder: less distribution of radioactivity in the bladder
[4]; patients who underwent surgery, listed as 99mTc-HYNIC-PSMA-XL-3
  consistency of SPECT/CT tumor uptake with immunohistochemical PSMA expression of surgical specimens: highly consistent
[4]; patients, about 740 MBq, SPECT/CT 2 hours after injection, compared with tumor uptake
  distribution of radioactivity in the bladder: low
[4]; patients, about 740 MBq, SPECT/CT 2 hours after injection, metastases such as lymph nodes/bone
  tumor targeting: high

## NNc1ccc(C(=O)NC(CCC(=O)O)C(=O)NC(CCC(=O)O)C(=O)NCc2ccc(C(=O)NC(Cc3ccc4ccccc4c3)C(=O)NCCCCC(NC(=O)NC(CCC(=O)O)C(=O)O)C(=O)O)cc2)cn1 (stereo not drawn) [HYNIC-PSMA-XL-2, Glu-Urea-Lys-2Nal-AMB-Glu-Glu-HYNIC]
PSMA protein; [5]
  Kd: < 0.00643 nM

## O=C([O-])CN(CCN(CC(=O)[O-])Cc1cc(CCC(=O)NCCCCCC(=O)NCCCC[C@H](NC(=O)N[C@@H](CCC(=O)O)C(=O)O)C(=O)O)ccc1[O-])Cc1cc(CCC(=O)O)ccc1[O-].[68Ga+3].[OH3+] [^68Ga-PSMA11, reference compound]
[2]
  patients found to have local recurrence in the prostatic fossa: 1
  positive rate of imaging: 80%
  Number of tumors: 1 (2×) and 4 and 0 and 2
  With or without local recurrence: no (4×) and yes
[3]
  distribution of radioactivity in the bladder: higher radiophysiological distribution; also recorded: high physiological distributions in the bladder
